Assay in all cases: NCI anticancer screen, dose series, 48 h
In assay [1] the test system is 786-0 renal.
Assay [2] relates to ACHN renal.
Assay [3] deals with DU-145 prostate.
Assay [4] relates to HCT-116 colon.
In assay [5] the test system is MALME-3M melanoma.
The subject of assay [6] is NCI/ADR-RES ovarian.
For assay [7], the system named is OVCAR-4 ovarian.
Assay [8] deals with OVCAR-8 ovarian.
The test system of assay [9] is SF-295 CNS.
The test system of assay [10] is SF-539 CNS.
For assay [11], the system named is SK-MEL-2 melanoma.
Assay [12] deals with SK-MEL-28 melanoma.
Assay [13] concerns SN12C renal.

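Method: 48-hour compound exposure of cells in 96-well plates, five concentrations, linear interpolation of endpoints. Definition used: TGI = concentration required for complete inhibition of growth.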

Take `C[N+](C)(N)Cc1csc(-c2ccc(Cl)cc2)n1`: the TGI in assay [1], in assay [2], in [3], in [4], in assay [5] and in assay [6] was > 100 µM in each case. The TGI in assay [7], in assay [8], in assay [9], in assay [10], in assay [11] and in assay [12] was > 100 µM throughout. Besides, the TGI in assay [13] is > 100 µM.

Consider `O=c1[nH]c2cc([N+](=O)[O-])c(N(CCO)CCO)c([N+](=O)[O-])c2[nH]1`, for which the TGI is > 100 µM in assay [1]; > 100 µM in assay [2]; > 100 µM in [3]; 87.5 µM in assay [4]; > 100 µM in [5]; > 100 µM in [6]. The TGI was > 100 µM in assay [7]; > 100 µM in [8]; > 100 µM in assay [9]; 77.1 µM in assay [10]; 96.1 µM in [11]; 91.8 µM in [12]. Moreover, in assay [13], the TGI is > 100 µM.

As to `COc1cc(C2c3cc4c(cc3OC(N3CCOCC3)C2C)OCO4)cc(OC)c1OC` (stereo not given), the TGI in assay [1] was 28.6 µM; in assay [2] it was 50.3 µM; in assay [3], > 49.6 µM; in assay [4], 12.7 µM; in assay [5], > 100 µM; in assay [6] it was 2.01 µM. The TGI in assay [7] was > 100 µM; in assay [8] it was 59.2 µM; in assay [9], 10.4 µM; in assay [10], 1.69 µM; in assay [11], 28.2 µM; in [12], > 100 µM. Also, in assay [13], the TGI is > 100 µM.

`CC1(C)CC(=O)C2=C(C1)N(c1ccccc1)C1(O)C=CC(=O)C3=C(O)c4ccccc4C(=O)C321` (stereo not given): the TGI in assay [1] was > 100 µM; in assay [2], 46.2 µM; in [3], > 100 µM; in assay [4] it was > 100 µM; in assay [5], 66.8 µM; in assay [6], > 100 µM. Besides, the TGI in [7] was 43.9 µM; in assay [8] it was > 100 µM; in assay [9], > 100 µM; in [10] it was 70.6 µM; in assay [11], 60.9 µM; in [12], 39.3 µM. The TGI in assay [13] is > 100 µM.

With `OC1NC2CC3NC(O)C(O)NC3CC2NC1O` (stereo not given), the TGI in assay [1], in [2], in assay [3], in assay [4], in assay [5] and in [6] was > 100 µM in each case. Moreover, the TGI in assay [7], in assay [8], in [9], in assay [10], in assay [11] and in assay [12] was > 100 µM each time. Further, the TGI in assay [13] was > 100 µM.

As for `Nc1ccc(S(=O)(=O)c2ccc(N=[N+]([O-])c3ccc(S(=O)(=O)c4ccc(N)cc4)cc3)cc2)cc1`, the TGI in [1] is 60.3 µM; in [2], > 100 µM; in [3], > 100 µM; in assay [4], > 100 µM; in assay [5] it was > 100 µM; in [6], > 100 µM. Also, the TGI in assay [7] was > 62.6 µM; in [8], > 100 µM; in assay [9], > 100 µM; in assay [10] it was 58.1 µM; in assay [11], > 94.2 µM; in assay [12] it was > 100 µM. Moreover, the TGI in assay [13] is > 100 µM.

In the case of `COc1cc(C(c2cc(OC)c(OC)c(OC)c2)N2C(=O)CCC2C(=O)O)cc(OC)c1OC` (stereo not given), the TGI in assay [1], in assay [2], in assay [3], in assay [4], in assay [5] and in assay [6] was > 100 µM in each case. Besides, the TGI in assay [7], in assay [8], in assay [9], in assay [10], in [11] and in assay [12] was > 100 µM each time. Moreover, in assay [13], the TGI is > 100 µM.

In the case of `COc1ccc(CCNC(=S)/N=C\C2=C(O)c3ccccc3C2=O)cc1OC`, the TGI in [1], in assay [2], in assay [3], in [4], in assay [5] and in assay [6] was > 100 µM in each case. For the same molecule, the TGI in [7], in assay [8], in [9], in [10], in assay [11] and in assay [12] was > 100 µM each time. Also, the TGI in assay [13] was > 100 µM.

As to `CCC(c1nc2ccccc2c(=O)n1NC(=O)C(C)(C)C)C1(O)CCCCC1` (stereo not given), the TGI in assay [1], in assay [2], in [3], in assay [4], in [5] and in [6] was > 100 µM throughout. In addition, the TGI in [7], in assay [8], in assay [9], in assay [10], in assay [11] and in [12] was > 100 µM each time. Further, the TGI in [13] is > 100 µM.

`Cc1ccc(C(=O)/C=C/N2CCN(c3cccc(C(F)(F)F)c3)CC2)cc1`: the TGI came out at 34 µM in assay [1]; 60.5 µM in assay [2]; 38 µM in [3]; 30.6 µM in assay [4]; 38.1 µM in assay [5]; 33 µM in [6]. In addition, the TGI is > 100 µM in [7]; 38.9 µM in [8]; 34 µM in assay [9]; 31.5 µM in [10]; 34.8 µM in assay [11]; 38.4 µM in [12]. The same molecule yielded a TGI in [13] of 36.3 µM.

As for `Cn1c2cc(Cl)ccc2c2ccc3c(c21)C(=O)C=CC3=O`, the TGI was > 55.9 µM in assay [1]; 40.9 µM in assay [2]; > 100 µM in assay [3]; > 53.7 µM in assay [4]; 33.4 µM in assay [5]; > 89.7 µM in assay [6]. Also, the TGI in [7] was 52.3 µM; in assay [8], > 100 µM; in assay [9], > 100 µM; in assay [10] it was > 78.8 µM; in assay [11], > 100 µM; in assay [12] it was 63.5 µM. For the same molecule, the TGI in [13] was 21.2 µM.

For `CN1CCN(c2ccc3nc(-c4ccc5nc(-c6ccc(N(C)CCCl)cc6)[nH]c5c4)[nH]c3c2)CC1`, the TGI is 1.11 µM in assay [1]; 5.97 µM in assay [2]; 11.4 µM in assay [3]; 14.4 µM in assay [4]; 0.41 µM in assay [5]; > 100 µM in assay [6]. Further, the TGI in [7] amounted to 1.04 µM; in assay [8] it was 1.53 µM; in assay [9] it was 11.2 µM; in [10], 0.462 µM; in assay [11], 0.465 µM; in assay [12], 1.13 µM. In assay [13], this molecule registered a TGI of 1.13 µM.

Regarding `CC1(C)N=C(/C(C#N)=[N+](/[O-])C(=O)c2ccccc2)C(C)(C)N1O`, the TGI in assay [1], in assay [2], in [3], in assay [4], in assay [5] and in assay [6] was > 100 µM in each case. The TGI in [7], in assay [8], in assay [9], in assay [10], in [11] and in assay [12] was > 100 µM throughout. The TGI in assay [13] was > 100 µM.

With `CN(C)C(=O)CO/N=C1/C(c2c(O)[nH]c3ccccc23)=Nc2ccccc21`, the TGI in assay [1], in assay [2], in assay [3], in assay [4], in assay [5] and in assay [6] was > 100 µM in each case. In addition, the TGI in assay [7], in [8], in assay [9], in assay [10], in assay [11] and in [12] was > 100 µM each time. In addition, the TGI in assay [13] was > 100 µM.

With `CC1(C)OCC(C2OC(=O)C(OCc3ccccc3)=C2OCc2ccccc2)O1` (stereo not given), the TGI in [1] is > 100 µM; in [2] it was > 100 µM; in [3], > 100 µM; in [4], > 100 µM; in assay [5], 93.9 µM; in assay [6], > 100 µM. Besides, the TGI in assay [7] is > 100 µM; in assay [8], > 100 µM; in [9], > 100 µM; in assay [10] it was > 100 µM; in assay [11] it was 61 µM; in assay [12] it was > 100 µM. The TGI in assay [13] is > 100 µM.

As to `FC(F)(F)c1nc2cc(SSc3cc4nc(C(F)(F)F)[nH]c4cc3Cl)c(Cl)cc2[nH]1`, the TGI in assay [1], in [2], in assay [3], in [4], in assay [5] and in assay [6] was > 100 µM throughout. Moreover, the TGI in assay [7], in [8], in assay [9], in assay [10], in assay [11] and in [12] was > 100 µM throughout. In addition, in assay [13], the TGI was > 100 µM.

Take `Cc1noc(C)c1N=Nc1ccc2nonc2c1N`: the TGI in [1], in [2], in assay [3], in [4], in assay [5] and in [6] was > 100 µM each time. Moreover, the TGI in assay [7] is > 100 µM; in [8], > 100 µM; in [9] it was > 100 µM; in assay [10], 92.5 µM; in assay [11] it was > 100 µM; in assay [12], > 100 µM. The TGI in assay [13] is > 100 µM.

Regarding `O=C(Nc1ccc(Cl)cc1)c1cc(S(=O)(=O)NC2=NC(c3ccccc3)c3cc(Cl)ccc3N2)c(SSc2cc(Cl)c(C(=O)Nc3ccc(Cl)cc3)cc2S(=O)(=O)NC2=NC(c3ccccc3)c3cc(Cl)ccc3N2)cc1Cl` (stereo not given), the TGI in [1], in [2], in assay [3], in assay [4], in assay [5] and in [6] was > 100 µM in each case. The TGI in [7], in [8], in assay [9], in assay [10], in assay [11] and in [12] was > 100 µM throughout. In addition, in assay [13], the TGI was > 100 µM.

Regarding `CC(C(O)c1ccccc1)[N+](=O)[O-]` (stereo not given), the TGI is > 100 µM in assay [1]; 33.7 µM in [2]; 35.5 µM in [3]; > 100 µM in assay [4]; 48.4 µM in assay [5]; 93.1 µM in assay [6]. In addition, the TGI is 52.6 µM in [7]; 35 µM in [8]; 61.4 µM in assay [9]; 49.1 µM in assay [10]; 39 µM in [11]; 41.5 µM in assay [12]. This molecule also gave a TGI in assay [13] of 35.6 µM.

Regarding `OC(C1CCCC1=N/N=C1/CCCC1C(O)(C(F)(F)Cl)C(F)(F)Cl)(C(F)(F)Cl)C(F)(F)Cl` (stereo not given), the TGI in assay [1], in [2], in assay [3], in [4], in assay [5] and in [6] was > 10 µM in each case. Besides, the TGI in [7], in assay [8], in [9], in assay [10], in [11] and in assay [12] was > 10 µM in each case. In assay [13], the TGI is > 10 µM.

The values are drawn from PubChem BioAssay (NCI).
